{
  "source": "paper PMC7222207",
  "about": "“Characterization of a CholesteroNitrone (ISQ-201), a Novel Drug Candidate for the Treatment of Ischemic Stroke” (Antioxidants, 2020)",
  "key": {"[1]": {"system": "transient forebrain ischemia, hippocampal CA1 and cortical neurons", "test": "Global cerebral ischemia (4VO), neuronal death by Fluoro-Jade B staining", "format": "in vivo, male Wistar rats", "details": "for maximum neuroprotection (Emax), neuronal death assay: iv at reperfusion onset", "procedure": "(§1) Transient forebrain ischemia was induced in adult male Wistar rats (10–12 weeks, Charles River) by the standard four-vessel occlusion model (4VO) described previously. Briefly, both vertebral arteries were irreversibly occluded by electrocoagulation under anesthesia, with a mixture of atropine, ketamine, and diazepam (0.25, 62.5, and 5 mg/kg, respectively) delivered through intraperitoneal injection. After 24 h, ischemia was induced by carotid occlusion with atraumatic clips, for 15 min, and then the clips were removed from the carotid arteries to allow reperfusion. Body temperature was maintained at 37 °C during the surgical procedure. The animals were studied after 5 days of reperfusion (R5d) after which they were sacrificed. Sham control animals were prepared in the same way, without carotid occlusion. We performed a power analysis (http://www.biomath.info/power/ttest.htm) to determine the sample size. Significance level and statistical power were set at 0.05 and 0.8 (80%), respectively, which afforded a sample size of […] subjects per group. The treatments were administered with concealed allocation, and in randomized order, according to a computer-generated randomization program. Ischemic animals were treated with a vehicle solution (saline/ethanol, 90:10 vol/vol) or nitrone ISQ-201, dissolved in a vehicle solution through a single intravenous tail injection, when the carotid arteries were unclamped for reperfusion. In therapeutic window experiments, the animals were treated once at the reperfusion onset or at the set reperfusion time points, after ischemia. For the administration, at 6 h and 48 h of reperfusion after ischemia, the animals were anesthetized with isoflurane for 2–3 min and 5 min, respectively, prior to the treatment administration. An independent researcher prepared the treatments for each animal, according to the randomization schedule. Data of each experimental group were normalized to each vehicle control group. All procedures associated with animal experiments were approved by the Animal Care Ethics Committee of the Hospital Universitario Ramón y Cajal (Madrid, Spain, code no. 06/2015) and were performed according to the ARRIVE guidelines.\nAfter 5 days of reperfusion (R5d), the animals were euthanized by transcardiac perfusion, under deep anesthesia. […]\nBrain cryosections (10 µm thick) from ischemic animals reperfused for 5 days were used after fixation to detect neuronal death by Fluoro-Jade B staining, and visualized by fluorescence microscopy. Labeled (dead) neuronal cells (in green) were counted, as in TUNEL assay (see below). Data from different animals of each experimental group were independently analyzed by two observers, and treatment information was kept concealed throughout the study."}, "[2]": {"system": "transient forebrain ischemia", "test": "Global cerebral ischemia (4VO), neurological deficit score (NDS)", "format": "in vivo, male Wistar rats", "details": "evaluated at 5 days", "procedure": "Transient forebrain ischemia was induced in adult male Wistar rats (10–12 weeks, Charles River) by the standard four-vessel occlusion model (4VO) described previously. Briefly, both vertebral arteries were irreversibly occluded by electrocoagulation under anesthesia, with a mixture of atropine, ketamine, and diazepam (0.25, 62.5, and 5 mg/kg, respectively) delivered through intraperitoneal injection. After 24 h, ischemia was induced by carotid occlusion with atraumatic clips, for 15 min, and then the clips were removed from the carotid arteries to allow reperfusion. Body temperature was maintained at 37 °C during the surgical procedure. The animals were studied after 5 days of reperfusion (R5d) after which they were sacrificed. Sham control animals were prepared in the same way, without carotid occlusion. We performed a power analysis (http://www.biomath.info/power/ttest.htm) to determine the sample size. Significance level and statistical power were set at 0.05 and 0.8 (80%), respectively, which afforded a sample size of <6 subjects per group. […]\nNeurological deficits in rats subjected to global cerebral ischemia were blindly evaluated after 5 days of reperfusion (R5d). […]\nIn order to quantify potential functional impairments, the general state of the animals was assessed. […]"}, "[3]": {"system": "transient forebrain ischemia", "test": "Long-term behavioral tests in Y maze (exploration, spatial recognition, spatial memory)", "format": "in vivo, male Wistar rats", "details": "0.05 mg/kg iv at reperfusion onset, 11 weeks after ischemic reperfusion", "procedure": "For the long-term studies, animals were subjected to behavioral tests, in order to assess their spontaneous spatial alternation and spatial memory skills, as markers of neurological damage present in longer periods, after the surgical procedure. According to previous literature, we selected the Y maze, in which both the exploration activity (spatial recognition) and spatial memory were evaluated.\nFor the exploration activity and spatial recognition, control animals and ischemic animals treated with the vehicle or ISQ-201 were placed in the center of the maze and let to explore for 8 min. The total number of arms that the animal entered indistinctly (number of arm entries) and the times that the animal explored consecutively—the three different arms of the maze (number of alternations or triads)—were registered by an observer blind to the treatment.\nFor the assessment of spatial memory, the control animals and ischemic animals treated with the vehicle or ISQ-201 were placed into one of the arms of the Y maze (start arm) and were allowed to explore the maze with one of the arms closed for 10 min (training trial). After 1 h, the rats were returned to the Y maze by placing them in the start arm and allowing them to freely explore all three arms of the maze for 3 min. The arm of the first choice of entry, the new or old, was registered manually by an observer blind to the treatment."}, "[4]": {"system": "transient forebrain ischemia, hippocampal CA1 and cortical neurons", "test": "Global cerebral ischemia (4VO), neuronal apoptosis by TUNEL assay", "format": "in vivo, male Wistar rats", "parameters": "maximum neuroprotection (Emax), TUNEL assay: dose or concentration left out as unconfirmed", "details": "for maximum neuroprotection (Emax), TUNEL assay: iv at reperfusion onset", "procedure": "as §1\nAfter 5 days of reperfusion (R5d), the animals were euthanized by transcardiac perfusion, under deep anesthesia. A washout step with 200 mL of saline via the left ventricle was followed by a fixation with 4% (w/v) paraformaldehyde solution in PBS. Brains were then removed and post-fixed in the same solution, overnight at 4 °C, sequentially washed with 10%, 20%, and 30% (w/v) sucrose in PBS, and embedded in Tissue-Tek O.C.T. (Sakura Finetek), before freezing at −80 °C. Brain coronal sections containing the hippocampus were obtained by cryostat sectioning at the level of interaural line +5.7 ± 0.2 mm on real capillary gap microscope slides (Dako).\nApoptotic neurons within the brain sections were detected by using the Terminal deoxynucleotidyl transferase-mediated dUTP Nick-End Labeling (TUNEL) assay (Promega). For this test, 5-µm-thick coronal cryostat brain sections containing the dorsal hippocampal formation were obtained, as described above, and post-fixed with 4% formaldehyde in PBS for 5 min, at room temperature. After washing in PBS for three times, the sections were permeabilized with 0.1 M sodium citrate, pH 6.0, for 1 min at 95 °C, then quickly cooled in ice and washed in PBS for 5 min at room temperature. […]"}, "[5]": {"system": "lipid peroxidation and ROS levels", "parameters": "method as in PMID 26241908", "details": "preliminary results; cited from earlier work"}, "[6]": {"system": "transient middle cerebral artery occlusion", "test": "Transient focal cerebral ischemia (tMCAO), infarct size by TTC stain", "format": "in vivo, male C57BL/6 mice", "details": "mice, 48 h after tMCAO"}, "[7]": {"system": "cerebral ischemia", "parameters": "method as in PMID 26241908", "details": "0.05 and 0.1 mg/kg intraperitoneal at onset of reperfusion; cited from earlier work"}, "[8]": {"details": "hippocampal CA1, most potent concentration, 5 days of reperfusion"}},
  "data": [
    {"smiles": "CC(C)[C@H]1CC[C@H]2[C@@H]3CCC4=C/C(=[N+](\\C)[O-])CC[C@]4(C)[C@H]3CC[C@]12C", "note": "[ISQ-201]", "values": [
      {"measurement": "neuronal death vs vehicle, therapeutic window", "setting": "[1]; 0.05 mg/kg iv given between 0 and 6 h after reperfusion, CA1 and cortex, evaluated at 5 days", "value": "significantly decreased"},
      {"measurement": "dead neuron number vs vehicle group", "setting": "[1]; 0.05 and 0.1 mg/kg iv at reperfusion onset, CA1 and cortex, 5 days of reperfusion", "value": "significant reduction"},
      {"measurement": "maximum neuroprotection (Emax), neuronal death assay", "setting": "[1]; cortex, most potent concentration, 5 days of reperfusion, vs vehicle = 0%", "value": 80, "unit": "%"},
      {"measurement": "maximum neuroprotection (Emax), neuronal death assay", "setting": "[1]; [8]", "value": 31, "unit": "%"},
      {"measurement": "neurological deficit score (NDS) vs vehicle", "setting": "[2]; 0.05 mg/kg iv given after 48 h of reperfusion", "value": "could not improve"},
      {"measurement": "neurological deficit score (NDS) vs vehicle", "setting": "[2]; 0.05 mg/kg iv given between 0 and 6 h of post-reperfusion", "value": "improvement"},
      {"measurement": "spatial memory (new arm as first choice), Y maze", "setting": "[3]", "value": "recovery of values similar to the control group"},
      {"measurement": "exploration activity (number of arm entries), Y maze", "setting": "[3]; vs control group", "value": "no significant differences with the control group"},
      {"measurement": "spatial recognition (number of alternations or triads), Y maze", "setting": "[3]; vs control group", "value": "no significant differences"},
      {"measurement": "cell apoptosis vs vehicle, therapeutic window", "setting": "[4]; 0.05 mg/kg iv given at 48 h postreperfusion, evaluated at 5 days", "value": "did not show significant differences"},
      {"measurement": "apoptosis-positive cells vs vehicle, therapeutic window", "setting": "[4]; 0.05 mg/kg iv given up to and including 6 h postreperfusion, hippocampal and cortical regions, evaluated at 5 days", "value": "significantly reduced"},
      {"measurement": "apoptotic cells vs vehicle group", "setting": "[4]; 0.05 and 0.1 mg/kg iv at reperfusion onset, CA1 and cortical regions, 5 days of reperfusion", "value": "significant reduction"},
      {"measurement": "maximum neuroprotection (Emax), TUNEL assay", "setting": "[4]; cortex, most potent concentration, 5 days of reperfusion", "value": 81, "unit": "%"},
      {"measurement": "maximum neuroprotection (Emax), TUNEL assay", "setting": "[4]; [8]", "value": 35, "unit": "%"},
      {"measurement": "effect on lipid peroxidation and ROS levels", "setting": "[5]", "value": "decreased"},
      {"measurement": "infarct area in the brain vs vehicle", "setting": "[6]; 0.05 mg/kg ip at onset of reperfusion", "value": "did not change"},
      {"measurement": "reduction in lesion size with respect to vehicle-treated group", "setting": "[6]; 0.1 mg/kg ip at onset of reperfusion", "value": 21, "unit": "%"},
      {"measurement": "neuronal death, apoptosis and neurodeficit score", "setting": "[7]", "value": "significant decreases"}
    ]}
  ]
}
